Test results reported in patent publication US10011607B2, “Ethynyl derivatives” (Hoffmann-La Roche Inc., priority 2015, dated 2018).

Biological target: human mGlu4 receptor (Homo sapiens (Human), UniProt Q14833)
Experiment: Ca2+ mobilization in vitro assay on recombinant human mGlu4 expressed in HEK293 cells (PAM)
Assay type: cell-based
Settings: for Emax: HEK293, maximal response in % of maximal stimulatory effect of saturating L-AP4, read-out: Eff. (%); for EC50: HEK293 cells, human mGlu4, in presence of EC20 of L-AP4, read-out: EC50 (nM) mGlu4PAM
Procedure, shortened: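 HEK293 cells stably expressing human mGlu4 at low level, Fluo-4AM loaded; compound (11 half-log dilutions) pre-incubated 10–30 min at 37 °C, then L-AP4 added at EC20 (determined daily). Peak fluorescence minus basal, normalized to saturating L-AP4; EC50, Hill slope and % Emax from four-parameter fit.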

Chain of human mGlu4 receptor (Q14833 33-912): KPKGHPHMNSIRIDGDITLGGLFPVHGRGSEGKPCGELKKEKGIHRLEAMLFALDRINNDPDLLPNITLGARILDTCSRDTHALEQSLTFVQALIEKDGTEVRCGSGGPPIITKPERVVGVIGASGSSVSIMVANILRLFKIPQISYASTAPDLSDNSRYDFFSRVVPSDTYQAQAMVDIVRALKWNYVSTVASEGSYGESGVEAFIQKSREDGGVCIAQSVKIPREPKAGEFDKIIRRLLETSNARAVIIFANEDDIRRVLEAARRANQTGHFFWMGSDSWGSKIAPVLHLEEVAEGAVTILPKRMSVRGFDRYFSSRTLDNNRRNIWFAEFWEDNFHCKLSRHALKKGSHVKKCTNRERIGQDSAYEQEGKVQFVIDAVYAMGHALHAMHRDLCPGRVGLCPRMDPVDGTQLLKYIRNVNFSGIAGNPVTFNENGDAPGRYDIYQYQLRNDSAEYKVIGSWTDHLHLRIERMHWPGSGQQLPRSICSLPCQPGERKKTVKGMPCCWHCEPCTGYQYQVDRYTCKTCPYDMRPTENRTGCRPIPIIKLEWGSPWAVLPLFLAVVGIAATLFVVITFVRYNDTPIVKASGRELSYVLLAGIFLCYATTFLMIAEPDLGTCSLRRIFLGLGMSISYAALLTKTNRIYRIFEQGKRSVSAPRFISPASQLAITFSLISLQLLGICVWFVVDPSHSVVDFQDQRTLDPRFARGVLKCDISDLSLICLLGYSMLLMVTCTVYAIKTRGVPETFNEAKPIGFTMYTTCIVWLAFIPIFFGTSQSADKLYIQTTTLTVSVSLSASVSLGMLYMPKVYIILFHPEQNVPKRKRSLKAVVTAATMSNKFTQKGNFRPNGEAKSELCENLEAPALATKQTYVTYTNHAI

SMILES | Emax [%] | EC50 [nM]
C[C@@]12CC(=O)N(c3c(F)cc(C#Cc4ccccc4)cc3F)C(=O)N1CCN(c1ccnc(Cl)c1)C2=O [Example 19, (9aS)-2-(2-chloro-4-pyridyl)-7-[2,6-difluoro-4-(2-phenylethynyl)phenyl]-9a-methyl-4,9-dihydro-3H-pyrazino[1,2-c]pyrimidine-1,6,8-trione] | 100 | 69
C[C@@]12CC(=O)N(c3c(F)cc(C#Cc4ccccc4)cc3F)C(=O)N1CCN(c1ccc(Cl)nc1)C2=O [Example 21, (9aS)-2-(6-chloro-3-pyridyl)-7-[2,6-difluoro-4-(2-phenylethynyl)phenyl]-9a-methyl-4,9-dihydro-3H-pyrazino[1,2-c]pyrimidine-1,6,8-trione] | 142 | 73
COc1ccc(N2CCN3C(=O)N(c4c(F)cc(C#Cc5ccccc5)cc4F)C(=O)C[C@@]3(C)C2=O)cn1 [Example 23, (9aS)-7-[2,6-difluoro-4-(2-phenylethynyl)phenyl]-2-(6-methoxy-3-pyridyl)-9a-methyl-4,9-dihydro-3H-pyrazino[1,2-c]pyrimidine-1,6,8-trione] | 114 | 61
Cn1cc(N2CCN3C(=O)N(c4c(F)cc(C#Cc5ccccc5)cc4F)C(=O)C[C@@]3(C)C2=O)ccc1=O [Example 24, (9aS)-7-[2,6-difluoro-4-(2-phenylethynyl)phenyl]-9a-methyl-2-(1-methyl-6-oxo-3-pyridyl)-4,9-dihydro-3H-pyrazino[1,2-c]pyrimidine-1,6,8-trione] | 103 | 128
C[C@@]12CC(=O)N(c3c(F)cc(C#Cc4ccccc4)cc3F)C(=O)N1CCN(c1ccncn1)C2=O [Example 27, (9aS)-7-[2,6-difluoro-4-(2-phenylethynyl)phenyl]-9a-methyl-2-pyrimidin-4-yl-4,9-dihydro-3H-pyrazino[1,2-c]pyrimidine-1,6,8-trione] | 136 | 39
Cc1nccc(N2CCN3C(=O)N(c4c(F)cc(C#Cc5ccccc5)cc4F)C(=O)C[C@@]3(C)C2=O)n1 [Example 31, (9aS)-7-[2,6-difluoro-4-(2-phenylethynyl)phenyl]-9a-methyl-2-(2-methylpyrimidin-4-yl)-4,9-dihydro-3H-pyrazino[1,2-c]pyrimidine-1,6,8-trione] | 91 | 88
C[C@@]12CC(=O)N(c3c(F)cc(C#Cc4ccccc4)cc3F)C(=O)N1CCN(c1cnccn1)C2=O [Example 33, (9aS)-7-[2,6-difluoro-4-(2-phenylethynyl)phenyl]-9a-methyl-2-pyrazin-2-yl-4,9-dihydro-3H-pyrazino[1,2-c]pyrimidine-1,6,8-trione] | 107 | 46
Cc1cc(N2CCN3C(=O)N(c4c(F)cc(C#Cc5ccccc5)cc4F)C(=O)C[C@@]3(C)C2=O)ncn1 [Example 35, (9aS)-7-[2,6-difluoro-4-(2-phenylethynyl)phenyl]-9a-methyl-2-(6-methylpyrimidin-4-yl)-4,9-dihydro-3H-pyrazino[1,2-c]pyrimidine-1,6,8-trione] | 121 | 91
Cc1cncnc1N1CCN2C(=O)N(c3c(F)cc(C#Cc4ccccc4)cc3F)C(=O)C[C@@]2(C)C1=O [Example 36, (9aS)-7-[2,6-difluoro-4-(2-phenylethynyl)phenyl]-9a-methyl-2-(5-methylpyrimidin-4-yl)-4,9-dihydro-3H-pyrazino[1,2-c]pyrimidine-1,6,8-trione] | 132 | 86
COc1ncc(N2CCN3C(=O)N(c4c(F)cc(C#Cc5ccccc5)cc4F)C(=O)C[C@@]3(C)C2=O)cn1 [Example 37, (9aS)-7-[2,6-difluoro-4-(2-phenylethynyl)phenyl]-2-(2-methoxypyrimidin-5-yl)-9a-methyl-4,9-dihydro-3H-pyrazino[1,2-c]pyrimidine-1,6,8-trione] | 90 | 55
CC(C)(C)Oc1ncc(N2CCN3C(=O)N(c4c(F)cc(C#Cc5ccccc5)cc4F)C(=O)C[C@@]3(C)C2=O)cn1 [Example 38, (9aS)-2-(2-tert-butoxypyrimidin-5-yl)-7-[2,6-difluoro-4-(2-phenylethynyl)phenyl]-9a-methyl-4,9-dihydro-3H-pyrazino[1,2-c]pyrimidine-1,6,8-trione] | 107 | 
CCOc1ncc(N2CCN3C(=O)N(c4c(F)cc(C#Cc5ccccc5)cc4F)C(=O)C[C@@]3(C)C2=O)cn1 [Example 39, (9aS or 9aR)-7-[2,6-difluoro-4-(2-phenylethynyl)phenyl]-2-(2-ethoxypyrimidin-5-yl)-9a-methyl-4,9-dihydro-3H-pyrazino[1,2-c]pyrimidine-1,6,8-trione] | 103 | 96
CC(C)Oc1ncc(N2CCN3C(=O)N(c4c(F)cc(C#Cc5ccccc5)cc4F)C(=O)C[C@@]3(C)C2=O)cn1 [Example 40, (9aS)-7-[2,6-difluoro-4-(2-phenylethynyl)phenyl]-2-(2-isopropoxypyrimidin-5-yl)-9a-methyl-4,9-dihydro-3H-pyrazino[1,2-c]pyrimidine-1,6,8-trione] | 103 | 113
C[C@@]12CC(=O)N(c3c(F)cc(C#Cc4ccccc4)cc3F)C(=O)N1CCN(c1cnc(OCc3ccccc3)nc1)C2=O [Example 41, (9aS)-2-(2-benzyloxypyrimidin-5-yl)-7-[2,6-difluoro-4-(2-phenylethynyl)phenyl]-9a-methyl-4,9-dihydro-3H-pyrazino[1,2-c]pyrimidine-1,6,8-trione] | 99 | 81
C[C@@]12CC(=O)N(c3c(F)cc(C#Cc4ccccc4)cc3F)C(=O)N1CCN(c1cnc(O)nc1)C2=O [Example 42, (9aS)-7-[2,6-difluoro-4-(2-phenylethynyl)phenyl]-2-(2-hydroxypyrimidin-5-yl)-9a-methyl-4,9-dihydro-3H-pyrazino[1,2-c]pyrimidine-1,6,8-trione] | 129 | 73
C[C@@]12CC(=O)N(c3c(F)cc(C#Cc4ccccc4)cc3F)C(=O)N1CCN(c1cnc(OC3CC3)nc1)C2=O [Example 43, (9aS)-2-[2-(cyclopropoxy)pyrimidin-5-yl]-7-[2,6-difluoro-4-(2-phenylethynyl)phenyl]-9a-methyl-4,9-dihydro-3H-pyrazino[1,2-c]pyrimidine-1,6,8-trione] | 153 | 171
COc1cnc(N2CCN3C(=O)N(c4c(F)cc(C#Cc5ccccc5)cc4F)C(=O)C[C@@]3(C)C2=O)cn1 [Example 44, (9aS)-7-[2,6-difluoro-4-(2-phenylethynyl)phenyl]-2-(5-methoxypyrazin-2-yl)-9a-methyl-4,9-dihydro-3H-pyrazino[1,2-c]pyrimidine-1,6,8-trione] | 107 | 123
C[C@@]12CC(=O)N(c3c(F)cc(C#Cc4ccccc4)cc3F)C(=O)N1CCN(c1cnc(OCc3ccccc3)cn1)C2=O [Example 45, (9aS)-2-(5-benzyloxypyrazin-2-yl)-7-[2,6-difluoro-4-(2-phenylethynyl)phenyl]-9a-methyl-4,9-dihydro-3H-pyrazino[1,2-c]pyrimidine-1,6,8-trione] | 122 | 190
C[C@@]12CC(=O)N(c3c(F)cc(C#Cc4ccccc4)cc3F)C(=O)N1CCN(c1cccnn1)C2=O [Example 47, (9aS)-7-[2,6-difluoro-4-(2-phenylethynyl)phenyl]-9a-methyl-2-pyridazin-3-yl-4,9-dihydro-3H-pyrazino[1,2-c]pyrimidine-1,6,8-trione] | 98 | 55
